Our source for the IC50 values is ChEMBL document CHEMBL1147031, “3D-QSAR and molecular docking studies of benzaldehyde thiosemicarbazone, benzaldehyde, benzoic acid, and their derivatives as phenoloxidase inhibitors” (Bioorg Med Chem, 2007).

This assay can be described thus: Inhibition of pieris rapae Phenoloxidase.

For orientation: IC50 means the concentration that gives 50% inhibition. On to `COc1cccc(C=O)c1O`, for which half-maximal inhibition (IC50) required 5.75 mM.
In turn, `COc1ccc(C=O)cc1` came in with a 50% inhibitory concentration (IC50) of 1.9 mM.
With `O=Cc1ccccc1O` the figure was 4.14 mM.
The value for `COc1cc(C(=O)O)ccc1O` [VANILLIC ACID] was 69 mM; that for `O=C(O)c1ccc(O)cc1` [PARABEN] was 16.2 mM.
With `O=C(O)c1ccccc1O` [SALICYLIC ACID] the figure was 33.8 mM.
Consider `O=Cc1cc(O)ccc1O`, for which the concentration for half-maximal inhibition (IC50) was 1.05 mM.
With `COc1ccc(C=O)cc1O` [ISOVANILLIN] the figure was 24.9 mM; with `NC(=S)N/N=C/c1ccccc1O`, 0.0022 mM; with `COc1ccc(C(=O)O)cc1` [p-ANISIC ACID], 5.55 mM.
For `COc1cccc(C(=O)O)c1`, the IC50 came to 13.3 mM.
The value for `CCCc1ccc(C(=O)O)cc1` was 1.75 mM; that for `O=Cc1cccc(O)c1` [3-HYDROXYBENZALDEHYDE] was 9.62 mM; that for `O=Cc1ccccc1` [BENZALDEHYDE] was 5.9 mM.
Turning to `CC(C)c1ccc(C=O)cc1`, the IC50 came to 0.86 mM.
Turning to `COc1ccc(C=O)c(O)c1`, the IC50 stood at 2 mM.
Compound `O=Cc1ccc(O)c(O)c1` [PROTOCATECHUALDEHYDE] had an IC50 of 9 mM.
As for `Nc1ccc(C(=O)O)cc1O`, half-maximal inhibition (IC50) was put at 25.5 mM.
With `NC(=S)N/N=C/c1ccccc1` [PHENYLTHIOSEMICARBAZONE] the figure was 0.00084 mM.
The value for `NC(=S)N/N=C\C=C\c1ccccc1` was 0.00065 mM.
For `COc1cc(C=O)ccc1O` [VANILLIN], the half-inhibitory concentration (IC50) was 50.5 mM.
With `O=Cc1ccc(O)cc1` [4-HYDROXYBENZALDEHYDE] the figure was 3.12 mM; with `COc1ccc(/C=N/NC(N)=S)cc1`, 0.0006 mM.
The value for `O=C(O)c1ccccc1` [BENZOIC ACID] was 14.2 mM; that for `Nc1cc(C(=O)O)ccc1O` was 3.8 mM.
With `O=C(O)c1ccc(O)c(O)c1` [PROTOCATECHUIC ACID] the figure was 29.5 mM.
On to `COc1cccc(C=O)c1`, for which half-maximal inhibition (IC50) required 42.9 mM.
The value for `COc1ccc(C(=O)O)cc1O` [ISOVANILLIC ACID] was 47.5 mM; that for `O=Cc1ccc(O)cc1O` was 4.88 mM; that for `CC(C)(C)c1ccc(C(=O)O)cc1` was 2.1 mM.
With `COc1ccccc1C=O` [2-METHOXYBENZALDEHYDE] the figure was 107 mM.
The value for `CC(C)(C)c1ccc(C=O)cc1` was 0.72 mM; that for `O=C(O)c1ccc(O)cc1O` [2,4-DIHYDROXYBENZOIC ACID] was 30.5 mM.
Take `O=C(O)c1cccc(O)c1` [3-HYDROXYBENZOIC ACID]: half-maximal inhibition (IC50) was put at 16.2 mM.
With `O=C(O)c1cc(O)ccc1O` [GENTISIC ACID] the figure was 32.5 mM; with `CC(C)c1ccc(C(=O)O)cc1`, 1.92 mM; with `COc1cccc(/C=N/NC(N)=S)c1`, 0.00192 mM.
